Results: patent publication US11427808B2, “Method for serum-free culture of chondrocytes and serum-free culture medium” (Regenesis Science Co., Ltd., priority 2014, dated 2022)

Test system: primary human chondrocytes
Test: serum-free culture of human chondrocytes, cell proliferation
Assay type: cell-based
Details: for proliferation of cultured chondrocytes (number of cells): 4th, 7th, 14th and 21st day
Description: Primary human chondrocytes were isolated from a fresh sample of articular cartilage, and the sample was fractionated. The obtained fractionated sample was then immersed in a 0.1% to 0.3% collagenase solution, and subjected to enzymatic digestion at 37° C. for 4 to 5 hours. The obtained cells were collected by centrifugation for 5 minutes at 1,200 rpm. A mixture obtained by adding 100 ng/mL FGF, 0.5 μM SAG, 400 ng/mL HC, 5 ng/mL IGF, and 5 μg/mL insulin to DMEM medium was used as a culture medium. The cultured cells previously obtained were seeded at a density of 1000 cells/cm^2 and cultured in an environment of 37° C. and 5% CO2. A mixture obtained by adding 100 ng/mL FGF2, 0.5 μM SAG, 400 ng/mL HC, 5 ng/mL IGF and 5 μg/mL insulin to DMEM medium was used as a culture medium for subculture. The cultured cells in Example 1 were seeded at a density of 10000 cells/cm^2 and cultured in an environment of 37° C. and 5% CO2. In order to examine the optimum concentration of SAG added to a culture medium, the concentration of SAG in a serum-free culture medium was changed to 0.05 uM, 0.01 uM or 0.5 uM, and an influence on proliferation of cultured chondrocytes was examined. Specifically, chondrocytes prepared in the same procedure as in Example 1 were seeded at a density of 10000 cells/well, and the number of cells on the 4th, 7th, 14th and 21st day after seeding was measured. Because SAG is a very expensive reagent, it is preferred that SAG be able to be used at as low concentration as possible. […] Specifically, the concentration of SAG in a serum-free culture medium to which ITS had been added was changed to 0.01 uM, 0.05 uM, 0.1 uM or 0.5 uM, and the cultured chondrocytes were cultured, and the number of cells on the 4th, 7th, 14th and 21st day after seeding was measured. In order to further examine the effect of ITS and SAG on an increase in chondrocytes, an increase in chondrocytes was examined in treated sites to which both ITS and SAG were added (ITS+ 0.01 uM SAG, ITS+ 0.1 uM SAG), a treated site to which ITS was added alone (ITS+ SAG−), and a treated site to which ITS and SAG were not added (ITS− SAG−).

## CNC1CCC(N(Cc2cccc(-c3ccncc3)c2)C(=O)c2sc3ccccc3c2Cl)CC1 (stereo not drawn) [SAG]
Comparative Example 1: primary culture as Example 1 but DMEM medium not containing SAG, first to 5th day, FIG. 3
  culture of chondrocytes: chondrocytes could not be effectively cultured in the state without SAG
Comparative Example 2: subculture as Example 2 but DMEM medium not containing SAG, first to 13th day, FIG. 7
  culture of chondrocytes: chondrocytes could not be effectively cultured in the state which does not contain SAG
ITS+ 0.01 uM SAG, ITS+ 0.1 uM SAG, FIG. 14
  effect on proliferation of chondrocytes: an obvious effect can be obtained by combining SAG
SAG 0.01 uM to 0.5 uM added along with ITS, FIG. 13
  proliferation of cultured chondrocytes (number of cells): an increase in chondrocytes was almost equally observed
SAG 0.05 uM, 0.01 uM or 0.5 uM in serum-free culture medium, no ITS, FIG. 12
  proliferation of cultured chondrocytes (number of cells): an obvious difference which had been expected was not observed

## O=C1O[C@H]([C@@H](O)CO)C(O)=C1O [ascorbic acid]
Example 1: 50 μg/mL ascorbic acid added on the 18th day of culture
  effect on culture of chondrocytes in a serum-free culture medium: very effective
Example 2 (subculture): 50 μg/mL ascorbic acid added on the 18th day of culture
  effect on culture of chondrocytes in a serum-free culture medium: very effective

## O=C(O)c1ccccc1C(=O)Nc1ccc(-c2ccccc2)cc1 [kartogenin, 2-[(biphenyl-4-yl)carbamoyl] benzoic acid]
ITS+ 1 uM Kartogenin
  effect on proliferation of chondrocytes: the effect on proliferation of chondrocytes was observed
Kartogenin added in place of SAG
  proliferation of chondrocytes: effective for the proliferation of chondrocytes
